Here are results for twelve molecules from patent US11865110B2, “Thrombin inhibitors, formulations, and uses thereof” (VERSEON INTERNATIONAL CORPORATION, priority 2018, dated 2024).

In one data set the target is T1, thrombin (Homo sapiens, UniProt P00734).
T1 construct: from tissue; host or cells: human plasma (thrombin generated in situ by tissue factor, phospholipids and CaCl2)
Nature of the data set: Human Thrombin Generation Assay (TGA). The data set is classed as biochemical. The note with it: concentration that reduces endogenous thrombin potential AUC by 50%; human plasma; read-out: ETP EC50. The protocol: Results for the human thrombin generation assay (TGA; not to be confused with “thermogravimetric analysis” which is used elsewhere and carries the same acronym. One of skill in the art will appreciate which meaning is intended based on context of the surrounding technical information.) were generated as follows. In a 96-well plate, 4 μL of 100, 33.3, 11.1, 3.7, 1.23, 0.41, 0.137, and 0.046 μM solutions of the test compounds in DMSO were added to sequential wells filled with 68 μL of a “TGA Working Solution.” See description of this solution as well as other relevant solutions below. The plate was incubated at room temperature for 10 minutes, whereupon 8 μL of warm “Substrate Solution” was added to each well, resulting in a 500 μM concentration of the substrate, Z-GGR-AMC (Z-Gly-Gly-Arg-7-amino-4-methylcoumarin·HCl), in each well. Fluorescence intensity data (Ex/Em 380/460 nm) collection began immediately using a Cytation™ or Synergy™ H1 96-well plate reader set to incubate the plate at 37° C. over the data collection time of 90 minutes following double-orbital shaking for a period of 4 seconds. Test compounds were measured parallel to blanks and controls, as well as to wells of the substrate in DMSO at various concentrations (2.50, 0.833, 0.278, 0.093 mM) in the buffers to generate a standard fluorescence curve. Data values were computed automatically, including the ETP EC50 value of the AUC, which is the concentration of the compound that reduces endogenous thrombin potential AUC by 50%.
The various solutions were prepared as follows. A HEPES/NaCl Assay buffer was made by combining 7.5 mL of 5M NaCl, 1.19 g 4-(2-hydroxyethyl)piperazine-1-ethanesulfonic acid (HEPES) and 230 mL of water. An “Innovin Master Solution” was made by combining 20 μL of Siemens Dade Innovin recombinant tissue factor and thromboplastin with 50 μL of 0.5 mM phospholipid-TGT acquired from DiaPharma® in 450 μL of the above HEPES/NaCl Assay buffer. This solution was then vortexed for a few seconds. Next the “Substrate Master Solution” was made by adding 3.2 mL DMSO to 100 mg of Z-GGR-AMC (Z-Gly-Gly-Arg-7-amino-4-methylcoumarin·HCl) and vortexing in a polystyrene tube. This solution was stored at −20° C. A “TGA Working Solution” was prepared by adding 6.2 mL of human plasma, 50 μL of the Innovin Master Solution, and 80 μL of phospholipids to 2.6 mL of HEPES/NaCl Assay buffer. A “Substrate Working Solution” was made immediately before addition to the assay plate by adding 200 μL of the above “Substrate Master Solution” to a pre-warmed (37° C.) mixture of 1.46 mL of HEPES/NaCl Assay buffer and 340 μL of 1M CaCl2).
For additional description of this assay, please see Robert, S. et al. ‘Is thrombin generation the new rapid, reliable and relevant pharmacological tool for the development of anticoagulant drugs?’2009, Pharmacol Res 59:160-6 as well as Hemker, H. C. et al. ‘Calibrated automated thrombin generation measurement in clotting plasma.’ 2003, Pathophysiol Haemost Thromb 33:4-15.

A short description of data set [1]: Mouse liver microsome stability. The note with it: pH 7.4; CD-1 mouse liver microsomes 0.5 mg/mL, NADPH, 37° C.; lower measurable bound 5. The data set is classed as in vitro ADME, mouse (CD-1). The protocol:
In a 96-well Nunc™ plate, 1.5 μL of a 200 μM solution of the test compound in DMSO were placed in a well. This plate, the “Reaction Plate,” was then warmed to 37° C. in an oven. In a second 96-well Nunc™ plate, the “Quench Plate,” six wells were filled with 180 μL of an internal standard quench solution composed of 100 nM diclofenac in acetonitrile. These six wells correspond to the six time points for data collection: 0, 0.5, 5, 15, 30, and 60 minutes. “Assay Buffer” was prepared by combining 6.96 g potassium phosphate, dibasic, 1.36 g potassium phosphate, monobasic, and 0.30 g of magnesium chloride hexahydrate, then diluting to a final concentration of 500 mL in water and adjusting to pH 7.4, as needed. Assay Buffer was warmed to 37° C., and 12 mL were added to a 10-mg vial of NADPH. Then 300 μL of a 20 mg/mL liver microsome suspension were added to yield a 0.5 mg/mL liver microsome suspension. 300 μL of this liver microsome suspension was then added to the test compound solution in the Reaction Plate and mixed thoroughly with a pipette tip. At each time point, 30 μL of this mixture was transferred to the corresponding well of the Quench Plate. In between time points, the Reaction Plate was kept sealed and warmed in an incubator at 37° C. When the last time point had been completed, the quench plate was centrifuged at 4° C. at 1000×g for 10 minutes. Afterwards, 50 μL of the supernatant of each well was transferred to unique, corresponding wells of a 96-well Costar® plate, the “Analysis Plate,” filled with 150 μL of 50:50 acetonitrile:HyClone™ water. The Analysis Plate was then sealed with a pre-slit plate seal before analysis via an appropriate LCMS method with a 10 μL injection. The abstracted AUC data were then automatically plotted to calculate intrinsic clearance in μL/min/mg. This experiment was run alongside a positive and negative control. Due to the parameters of this procedure, one of skill in the art will appreciate that this assay has a lower measurable bound of 5 μL/min/mg; therefore, certain compounds have their clearances labeled as ≤5 μL/min/mg.
For orientation: Liver microsomes are a subcellular fraction often used to study metabolism.

The nature of another data set: Mouse plasma stability. The data set is classed as in vitro ADME, mouse (CD-1). The note with it: CD-1 mouse plasma, 37° C., time points to 160 min; read-out: Mouse Plasma Stability t1/2. The protocol:
Alongside a positive control of propantheline bromide, 8 μL of a 1 mM solution of each test compound in DMSO was placed in two wells of a Nunc™ 96-well plate called the “dilution plate.” To one well, 392 μL of HyClone™ water was added and mixed by a pipette. To the other well, 392 μL of mouse or rat plasma stabilized with sodium citrate purchased from Innovative Research was added and mixed by a pipette. The dilution plate was kept covered to reduce solvent evaporation and heated in an incubator at 37° C. At each of the time points enumerated below, the plate was removed from the incubator and 50 μL of the test compound/water or test compound/plasma solutions were transferred to a unique, corresponding well in a “quench plate” (96-well Costar® plate) that contains 150 μL of a quench solution that contains an internal standard (20 uM diclofenac in acetonitrile). The dilution plate was then returned to the incubator. This process was performed at 0, 5, 10, 20, 40, 80, and 160 minutes from the original mixing of the test compounds with the water or plasma in the dilution plate. After the quenching of the 160-minute time point, the quench plate was then centrifuged at 4° C. at 1000×g for 10 minutes. 100 μL of the supernatant of each well were then transferred to corresponding unique wells in a “read plate” (96-well Costar® plate) that were filled with 100 μL of HyClone™ water. The plate was then sealed and analyzed via UHPLC using a 10-μL sample injection through a Phenomenex® Kinetex column pre-equilibrated with the loading buffer (95:5 water:acetonitrile). The parameters were as follows. Mobile Phase A: water, 0.025% formic acid. Mobile Phase B: acetonitrile, 0.025% formic acid. Flow Rate: 0.5 mL/min. […] Half-life (t1/2) times were computed by using a chi-square analysis to fit the peak areas to an exponential decay model for compound concentration as a function of time.

The subject of the next data set is malignant breast tumors. Particulars: treated mice, cited from earlier work.

Consider `[2H]C([2H])(Nc1cc(-c2cccn(CCC(=O)O)c2=O)nn1C(=O)C(C)(C)C)c1ccc(Cl)s1` [Compound 24, 3-[3-(5-{[(5-chlorothiophen-2-yl)(2H2)methyl]amino}-1-(2,2-dimethylpropanoyl)-1H-pyrazol-3-yl)-2-oxo-1,2-dihydropyridin-1-yl]propanoic acid], for which the EC50 (as a rule, the midpoint of the concentration-response curve) at thrombin was determined as 2400 nM.

In the case of `CC(=O)OC(C)OC(=O)CCn1cccc(-c2cc(NCc3ccc(Cl)s3)n(C(=O)C(C)(C)C)n2)c1=O` (stereo not shown) [Compound 18, 1-(acetyloxy)ethyl 3-[3-(5-{[(5-chlorothiophen-2-yl)methyl]amino}-1-(2,2-dimethylpropanoyl)-1H-pyrazol-3-yl)-2-oxo-1,2-dihydropyridin-1-yl]propanoate], on thrombin, the half-maximal effective concentration (EC50) turned out to be 1300 nM.

On to `CC(C)[C@H](NC(=O)OC(C)(C)C)C(=O)OCOC(=O)CCn1cccc(-c2cc(NCc3ccc(Cl)s3)n(C(=O)C(C)(C)C)n2)c1=O` [Compound 21, ({3-[3-(5-{[(5-chlorothiophen-2-yl)methyl]amino}-1-(2,2-dimethylpropanoyl)-1H-pyrazol-3-yl)-2-oxo-1,2-dihydropyridin-1-yl]propanoyl}oxy)methyl (2S)-2-{[(tert-butoxy)carbonyl]amino}-3-methylbutanoate], for which the concentration giving a half-maximal response (EC50) at thrombin stood at 4800 nM.

For `Cc1nc(C)c(COC(=O)CCn2cccc(-c3cc(NCc4ccc(Cl)s4)n(C(=O)C(C)(C)C)n3)c2=O)nc1C` [Compound 20, (3,5,6-trimethylpyrazin-2-yl)methyl 3-[3-(5-{[(5-chlorothiophen-2-yl)methyl]amino}-1-(2,2-dimethylpropanoyl)-1H-pyrazol-3-yl)-2-oxo-1,2-dihydropyridin-1-yl]propanoate], the EC50 on thrombin is 2400 nM.

`C=CCOC(=O)CCn1cccc(-c2cc(NCc3ccc(Cl)s3)n(C(=O)C(C)(C)C)n2)c1=O` [Compound 16, prop-2-en-1-yl 3-[3-(5-{[(5-chlorothiophen-2-yl)methyl]amino}-1-(2,2-dimethylpropanoyl)-1H-pyrazol-3-yl)-2-oxo-1,2-dihydropyridin-1-yl]propanoate]: the 50% effective concentration (EC50) on thrombin amounted to 1900 nM.

Consider `[2H]C([2H])(C(=O)O)C([2H])([2H])n1cccc(-c2cc(NCc3ccc(Cl)s3)n(C(=O)C(C)(C)C)n2)c1=O` [Compound 22, 3-[3-(5-{[(5-chlorothiophen-2-yl)methyl]amino}-1-(2,2-dimethylpropanoyl)-1H-pyrazol-3-yl)-2-oxo-1,2-dihydropyridin-1-yl](2H4)propanoic acid], for which the EC50 at thrombin is 1900 nM.

With `CCOC(=O)CCn1cccc(-c2cc(NCc3ccc(Cl)s3)n(C(=O)C(C)(C)C)n2)c1=O` [Compound 15, ethyl 3-[3-(5-{[(5-chlorothiophen-2-yl)methyl]amino}-1-(2,2-dimethylpropanoyl)-1H-pyrazol-3-yl)-2-oxo-1,2-dihydropyridin-1-yl]propanoate], the concentration for a half-maximal effect (EC50) at thrombin stood at 2900 nM.

As to `COCCn1cccc(-c2cc(NCc3ccc(Cl)s3)n(C(=O)C(C)(C)C)n2)c1=O` [Compound 7, 3-(5-{[(5-chlorothiophen-2-yl)methyl]amino}-1-(2,2-dimethylpropanoyl)-1H-pyrazol-3-yl)-1-(2-methoxyethyl)-1,2-dihydropyridin-2-one], the intrinsic metabolic clearance (microsomal CLint) (usually the rate of metabolic loss divided by the concentration) at 1 µM in data set [1] was found to be 290 µL/min/mg. The half-life at 20 µM in the data set “Mouse plasma stability” is ≥ 5 h. Besides, the half-maximal effective concentration (EC50) at thrombin lay within 850 to 970 nM.

In turn, `CC(C)(C)C(=O)n1nc(-c2cccn(CC(F)(F)C(=O)O)c2=O)cc1NCc1ccc(Cl)s1` [Compound 6, 3-[3-(5-{[(5-chlorothiophen-2-yl)methyl]amino}-1-(2,2-dimethylpropanoyl)-1H-pyrazol-3-yl)-2-oxo-1,2-dihydropyridin-1-yl]-2,2-difluoropropanoic acid] yielded a microsomal CLint at 1 µM in data set [1] of 9 µL/min/mg. Besides, the half-life at 20 µM in the data set “Mouse plasma stability” came out at 0.117 h. Further, the EC50 at thrombin was found to be 5400 nM.

Take `CC(=O)OCCOC(=O)CCn1cccc(-c2cc(NCc3ccc(Cl)s3)n(C(=O)C(C)(C)C)n2)c1=O` [Compound 17, 2-(acetyloxy)ethyl 3-[3-(5-{[(5-chlorothiophen-2-yl)methyl]amino}-1-(2,2-dimethylpropanoyl)-1H-pyrazol-3-yl)-2-oxo-1,2-dihydropyridin-1-yl]propanoate]: at thrombin, the EC50 was 1200 nM.

Turning to `CCCCCCOC(=O)N=C(N)c1ccc(NCc2nc3cc(C(=O)N(CCC(=O)OCC)c4ccccn4)ccc3n2C)cc1` [dabigatran etexilate], the “reduction in tumor volume” value in the data set with malignant breast tumors (at 4 weeks) is listed as 50%. Further, the “reduction of tumor cells in the blood and liver micrometastases” value in the data set on malignant breast tumors was 50-60%.

On to `CC(C)(CO)C(=O)n1nc(-c2cccn(CCC(=O)O)c2=O)cc1NCc1ccc(Cl)s1` [Compound 10, 3-[3-(5-{[(5-chlorothiophen-2-yl)methyl]amino}-1-(3-hydroxy-2,2-dimethylpropanoyl)-1H-pyrazol-3-yl)-2-oxo-1,2-dihydropyridin-1-yl]propanoic acid], for which, in data set [1], the intrinsic clearance (microsomal CLint) at 1 µM was found to be 4 µL/min/mg. For the same molecule, the half-life at 20 µM in “Mouse plasma stability” was determined as 1.17 h. For the same molecule, the EC50 at thrombin is 1700 to 10000 nM.
